Measured values reported in US11371994B2, “Phosphorylated Akt-specific capture agents, compositions, and methods of using and making” (California Institute of Technology, priority 2013, dated 2022).
Where “and” joins values, the source holds several entries; their conditions need not be identical. Equal entries are not always repeated. Entries after “also recorded” stand apart in the source; their conditions may differ.

How the values were obtained:
[1] = test system: Akt; settings: cited from earlier work
[2] = biological target: T1, Akt2 epitope (450-481) (Homo sapiens, UniProt P31751); experiment: Epitope selectivity ELISA with His6 tagged C-terminal 32-mer fragments; format: binding; settings: peptide fragments; set also full protein level
T1 construct: made in house; host or cells: chemical solid-phase peptide synthesis (Rink Amide MBHA resin)
T1 sequence (P31751 450-481 limits assumed): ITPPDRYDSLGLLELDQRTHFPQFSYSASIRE
Procedure: (§1) 1.25 μM biotinylated ligand was prepared by diluting the 1 mM stock in binding buffer (25 mM tris chloride, pH=7.4, 150 mM NaCl, 0.1% BSA, 0.05% Tween 20). The prepared ligand solution or 0.125% DMSO in buffer (buffer control) was immobilized on a High Capacity Streptavidin 96 well plate (Thermo Scientific). After washing away the excess ligand, the plate was blocked overnight with 1% BSA/25 mM tris chloride, pH=7.4/150 mM NaCl, 0.05% Tween 20. 2.5 μM solutions of the His6 (SEQ ID NO:28) tagged target phosphopeptide epitope Akt2 amino acids 450-481, His6 (SEQ ID NO:28) tagged Akt1 amino acids 449-480, His6 (SEQ ID NO:28) tagged Akt3 amino acids 448-479 were added to each of the wells. Following three washes with the binding buffer, the plate was treated for an hour with a 1:1000 dilution of anti His6 (SEQ ID NO:28) mouse monoclonal antibody. A 1:10,000 dilution of goat anti mouse antibody-Horse Radish Peroxide conjugate in binding buffer was added to the wells. The plates were washed four times, five minutes each, with 0.05% Tween 20/TBS (25 mM tris chloride, pH=7.5, 150 mM NaCl) and once with TBS (25 mM tris chloride, pH=7.5, 150 mM NaCl). […] The A450 measured on a 96-well plate reader. The Net A450 was obtained by subtracting the absorbance value for the blank control (no immobilized ligand) from each of the triplicate values obtained for the ligand-epitope interaction. […]

[3] = biological target: T2, target peptide epitope (Akt2 450-481, pS474) (Homo sapiens, UniProt P31751); experiment: ELISA of C terminal triligand candidates binding to the target peptide epitope; settings: listed as C-t1
T2 construct: made in house; host or cells: chemical solid-phase peptide synthesis (Rink Amide MBHA resin)
T2 sequence (P31751 450-481 limits assumed): T1 sequence (P31751 450-481 limits assumed)
Procedure: Selection of the final C terminal triligand C-tL: Four triligand candidates were synthesized with (L-Az4)-hdGGf (SEQ ID NO:25) […], (L-Az4)-hdGsf (SEQ ID NO:74) (C-t2), (L-Az4)-hdGww (SEQ ID NO:67) (C-t3), (L-Az4)-hdGkf (SEQ ID NO:77) (C-t4) as the 3° peptide arm. Binding of the candidates to the target peptide epitope was determined in an ELISA assay (FIG. 20C) and the ligand C-t1 emerged as the best binder. C-t1 was chosen as the C terminal triligand C-tL.
as §1, with “wells.” for “wells. Following three washes with the binding buffer, the plate was treated for an hour with a 1:1000 dilution of anti His6 (SEQ ID NO:28) mouse monoclonal antibody. A 1:10,000 dilution of goat anti mouse antibody-Horse Radish Peroxide conjugate in binding buffer was added to the wells. The plates were washed four times, five minutes each, with 0.05% Tween 20/TBS (25 mM tris chloride, pH=7.5, 150 mM NaCl) and once with TBS (25 mM tris chloride, pH=7.5, 150 mM NaCl).”

[4] = biological target: T3, Akt2 (Homo sapiens, UniProt P31751); experiment: Single component ELISA, PCC agent as capture or detection agent (relative affinity); format: binding; design: purchased Abcam; settings: read-out: EC50 from single component ELISA
T3 sequence (P31751 whole entry, the tested form may be a part, canonical isoform): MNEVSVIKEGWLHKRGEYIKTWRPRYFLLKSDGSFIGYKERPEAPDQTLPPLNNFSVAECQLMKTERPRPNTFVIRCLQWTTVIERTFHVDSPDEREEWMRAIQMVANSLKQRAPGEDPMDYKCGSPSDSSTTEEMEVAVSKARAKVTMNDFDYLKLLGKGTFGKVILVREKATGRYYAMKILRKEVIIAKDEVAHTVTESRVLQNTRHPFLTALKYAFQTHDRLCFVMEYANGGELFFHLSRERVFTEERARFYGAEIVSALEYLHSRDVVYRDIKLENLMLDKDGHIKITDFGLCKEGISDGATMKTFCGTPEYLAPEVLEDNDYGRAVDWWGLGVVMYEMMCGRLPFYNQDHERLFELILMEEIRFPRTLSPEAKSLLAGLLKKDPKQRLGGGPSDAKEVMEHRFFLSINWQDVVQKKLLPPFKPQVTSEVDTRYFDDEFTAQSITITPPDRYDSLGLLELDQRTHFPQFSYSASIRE
Text: FIG. 23: A. ELISA assays in which the PCC Agents are utilized as either as surface-localized capture agents (for N-tL, C-tL) or as the detection agent (for mono-L, bi-L). Such assays provide relative affinity measurements, which are given as EC50 values in the key. […] C. C-tL distinguishes the full length Akt2 from isoform proteins Akt1 and Akt3. D. The 32 amino acid long C terminal fragment from Akt2, Akt1 and Akt3. The hydrophobic motif is highlighted in blue. pS refers to phospho-serine. […] F. Selectivity assays: Biotinylated ligands or biotinylated pS473 antibody is immobilized on streptavidin-agarose and treated with OVCAR3 cell lysate. The eluents are stained with a pan-Akt antibody or pS473 Akt antibody.
1.25 μM biotinylated ligand was prepared by diluting the 1 mM stock in binding buffer (25 mM tris chloride, pH=7.4, 150 mM NaCl, 0.1% BSA, 0.05% Tween 20). The prepared ligand solution or 0.125% DMSO in buffer (buffer control) was immobilized on a High Capacity Streptavidin 96 well plate (Thermo Scientific). After washing away the excess ligand, the plate was blocked overnight with 1% BSA/25 mM tris chloride, pH=7.4/150 mM NaCl, 0.05% Tween 20. 2.5 μM solutions of the His6 (SEQ ID NO:28) tagged target phosphopeptide epitope Akt2 amino acids 450-481, His6 (SEQ ID NO:28) tagged Akt1 amino acids 449-480, His6 (SEQ ID NO:28) tagged Akt3 amino acids 448-479 were added to each of the wells. Following three washes with the binding buffer, the plate was treated for an hour with a 1:1000 dilution of anti His6 (SEQ ID NO:28) mouse monoclonal antibody. A 1:10,000 dilution of goat anti mouse antibody-Horse Radish Peroxide conjugate in binding buffer was added to the wells. The plates were washed four times, five minutes each, with 0.05% Tween 20/TBS (25 mM tris chloride, pH=7.5, 150 mM NaCl) and once with TBS (25 mM tris chloride, pH=7.5, 150 mM NaCl). Color was developed by adding TMB substrate (KPL) to each well. The reaction was quenched with 0.5 M H2SO4. The A450 measured on a 96-well plate reader. The Net A450 was obtained by subtracting the absorbance value for the blank control (no immobilized ligand) from each of the triplicate values obtained for the ligand-epitope interaction. The selectivity assay with full length His6 (SEQ ID NO:28) tagged Akt1, Akt2 and Akt3 was performed following the same protocol, using 25 nM protein instead of 2.5 μM His6 tagged peptide epitope.

[5] = biological target: T4, Akt (Homo sapiens, UniProt P31751); experiment: OVCAR3 lysate pull-down (immunoprecipitation) assay; format: binding; settings: eluents stained with pan-Akt antibody
T4 construct: endogenous in cells; host or cells: OVCAR3
T4 sequence (P31751 whole entry): as the sequence (P31751 whole entry, the tested form may be a part, canonical isoform) above
Procedure: OVCAR3 cells (ATCC) were grown in RPMI-1640 media containing 20% fetal bovine serum. Passage three cells were grown to ˜80% confluence. Cells were lysed with lysis buffer (10 mM Tris-Cl (pH=7.5), 100 mM NaCl, 1% (v/v) Triton X-100, 0.1% SDS (w/v), 0.5% deoxycholate, 1 mM DTT, 1 mM EDTA, 1× PhosStop phosphatase inhibitors (Roche), 1× Complete protease inhibitors (Roche)) and the amount of protein measured using BCA Protein Assay Kit (Pierce Biotechnologies, Inc). Streptavidin-agarose resin solution (EMD) was swelled in TBST (25 mM tris chloride, pH=7.5, 150 mM NaCl, 0.05% Tween-20). Each of the biotinylated ligands was immobilized on the Streptavidin-agarose resin by adding 7.2 μL of 1 mM ligand stock (DMSO) to 10 μL of the swelled streptavidin-agarose resin. For the blank control, the resin was treated with 7.2 μL of 1 mM biotinylated acyl glycine. […] After shaking overnight at 4° C., 50 μM D-biotin was added to the resin to block any remaining sites. The resin was washed with TBST five times, for fifteen minutes each. The resin was then swelled in binding buffer for two hours. To each of the immobilized ligands, 200 μL OVCAR3 cell lysate (1.9 mg/ml) was added. The tubes were shaken at 4° C. for 18 hours. The beads were extensively washed, three times for fifteen minutes in binding buffer, three times (fifteen minutes) in TBST, and three times (fifteen minutes) in TBS to remove unbound proteins. The resin bound proteins were eluted by adding 40 μL of 2×SDS-PAGE sample loading buffer (BioRad) and heating at 95° C. for five minutes. A 1:10 diluted sample of lysate in sample loading buffer was prepared by mixing 1 μL of the sample with 9 μL sample loading buffer and denaturing the sample by heating at 95° C. for five minutes. 10 μL of each sample was loaded on a 12% SDS-PAGE gels (BioRad) and run for 80 minutes at 110 volts. Three identical gels were loaded and run at the same time. One gel was used for Coomassie staining with Coomassie Fluor Orange Protein Gel Stain (Molecular Probes) following the manufacturer's protocol. The two other gels were transferred to nitrocellulose membranes by the semidry transfer method, blocked for two hours at 4° C. with 5% non-fat milk, and treated overnight at 4° C. with a 1:1000 dilution of pan-Akt rabbit monoclonal antibody (Cell Signaling Technology) and a 1:1000 dilution of pS473 Akt rabbit monoclonal antibody (Cell Signaling Technology), respectively, in 0.5% non-fat milk. The membranes were washed and treated for an hour with a 1:10,000 dilution of monoclonal mouse anti-rabbit-HRP secondary antibody (Cell Signaling Technology) in 0.5% milk. After five washes of five minutes each with TBST and one wash of five minutes with TBS, the blots were developed with West Dura ECL substrate (Thermo Scientific) and imaged on film.

[6] = biological target: T3, Akt2; experiment: Non-radioactive kinase assay, phosphorylation of GSK-3α/β fusion protein; format: biochemical; design: purchased Abcam
Procedure: The non-radioactive kinase assay kit for Akt2 was purchased from Cell Signaling. Ligand solutions were made in DMSO. Kinase reactions were set up in 1× kinase buffer (25 mM trisHCl (pH 7.5), 10 mM MgCl2, 0.01% Triton-X, 1× Complete protease inhibitor (Roche), 1× Phosstop phosphatase inhibitor (Roche)), each 25 μL reaction mixture containing 400 ng Akt2, 400 ng GST-GSK-3α/β fusion protein, […] and 0.5 μL of peptide solutions in DMSO or DMSO only. Reactions were allowed to proceed for 30 minutes at 30° C. A reaction mixture was also prepared using a 1:2.5 dilution of anti pS473 antibody (Cell Signaling) in the kinase buffer instead of the peptide ligand or DMSO. The reactions were quenched by adding 12.5 μL of 2×SDS sample loading buffer and heating at 95° C. for five minutes. 10 μL from each sample was loaded on an any kD SDS gel (BioRad) and run for an hour at 110 volts. Following semidry transfer of the gel to a nitrocellulose membrane, the membrane was blocked in 5% nonfat milk/TBST for an hour at 4° C., and treated overnight at 4° C. with a 1:200 dilution of Phospho GSK-3α/β Ser (21/9) rabbit antibody (Cell Signaling) in 0.5% milk/TBST. Following washes, the membrane was treated with a 1:2000 dilution of mouse anti-rabbit-HRP antibody for an hour at 4° C. After four five minute washes with TBST, and one five minute wash with TBS, the membrane was treated with West Dura ECL substrate (Thermo Scientific) and imaged on film.

SMILES	effect on Akt phosphorylation [1]	selectivity for the Akt2 epitope compared to corresponding regions in Akt1 and Akt3 [2]	binding to the target peptide epitope [3]	EC50 [4]	immunoprecipitation of Akt from OVCAR3 cell lysate [5]	EC50 ([6]; densitometry of pGSK3α/β western blot, normalized to DMSO control, read-out: EC50 of inhibition of Akt2 kinase activity)	influence on Akt2 kinase activity (p-GSK-3α/β level) ([6]; relative to DMSO control)
Cc1n[nH]c2ccc(-c3cncc(OC[C@@H](N)Cc4c[nH]c5ccccc45)c3)cc12 [A-443654]	paradoxical hyper-phosphorylation of Akt at both Thr308 and Ser473						
CC(=O)NC(CCCCn1cc(C[C@@H](NC(=O)CCCCn2cc(C[C@@H](NC(=O)[C@@H](Cc3ccccc3)NC(=O)[C@@H](Cc3ccc(O)cc3)NC(=O)CNC(=O)[C@@H](CC(N)=O)NC(=O)[C@H](N)Cc3c[nH]cn3)C(=O)O)nn2)C(=O)N[C@H](Cc2c[nH]c3ccccc23)C(=O)N[C@H](CCCCN)C(=O)N[C@@H](C(=O)N[C@H](CCCCN)C(=O)N[C@H](CCCCNC(=O)CCc2cn(CCCC[C@H](NC(C)=O)C(=O)N[C@H](Cc3c[nH]cn3)C(=O)N[C@H](CC(=O)O)C(=O)NCC(=O)NCC(=O)N[C@H](Cc3ccccc3)C(N)=O)nn2)C(=O)N2CCCCC2)C(C)C)nn1)C(=O)NCCOCCOCCOCCC(=O)NCCNC(=O)CCCC[C@@H]1SC[C@@H]2NC(=O)N[C@@H]21 (stereo partly shown) [C-tL]		significant selectivity for the Akt2 epitope	best binder; also recorded: shows good binding	0.125 µM	lower signal than N-tL	4 µM and ~4 µM	inhibits Akt2 kinase activity
